Earlier results, collected in US20220265591A1, “USE OF AN OSMOLYTE IN MANUFACTURE OF A MEDICAMENT FOR TREATMENT OF OCULAR DISORDERS” (SINGAPORE HEALTH SERVICES PTELTD, priority 2019, published 2022).

System: TGFBIp derived peptides
Details: 0.001-0.02% (0.03-0.6 mM), close to critical micellar concentration; cited from earlier work

For benzalkonium chloride, the “effect on amyloid fibril formation” value is listed as “accelerated the amyloid fibril formation”.
